For this assay, the target named is T1, TRAP1 enzyme (Homo sapiens, UniProt Q12931).
T1 construct: 150 nM Trap1 enzyme was incubated with various concentrations of the test compound
T1 sequence (Q12931 60-704): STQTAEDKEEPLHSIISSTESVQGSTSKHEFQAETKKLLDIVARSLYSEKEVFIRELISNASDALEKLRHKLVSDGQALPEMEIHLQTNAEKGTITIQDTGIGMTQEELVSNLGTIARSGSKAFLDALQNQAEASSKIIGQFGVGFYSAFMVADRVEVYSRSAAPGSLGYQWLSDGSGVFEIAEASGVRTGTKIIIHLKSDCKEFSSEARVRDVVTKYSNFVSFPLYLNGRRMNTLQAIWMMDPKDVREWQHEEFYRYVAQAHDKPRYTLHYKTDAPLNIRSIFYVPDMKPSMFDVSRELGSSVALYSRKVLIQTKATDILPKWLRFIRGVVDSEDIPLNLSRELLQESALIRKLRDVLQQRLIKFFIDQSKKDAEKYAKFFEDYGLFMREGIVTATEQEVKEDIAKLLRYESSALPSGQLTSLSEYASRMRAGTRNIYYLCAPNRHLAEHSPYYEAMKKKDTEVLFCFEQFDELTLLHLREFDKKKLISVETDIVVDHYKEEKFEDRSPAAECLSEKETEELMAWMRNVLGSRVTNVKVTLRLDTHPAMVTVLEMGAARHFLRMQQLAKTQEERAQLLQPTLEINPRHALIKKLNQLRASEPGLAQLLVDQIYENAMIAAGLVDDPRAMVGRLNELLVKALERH
Description: ADP Glo assay of TRAP1 ATPase activity. Format: biochemical. As to conditions: for EC50: concentration for half maximal activation, read-out: ADP GLO DRC: GeoMean EC50; for Emax: maximal percent activation, read-out: ADP GLO DRC: Mean Emax; for activation at 50 µM: 1 h, compound concentration 50 μM, read-out: ADP-Glo Percent Activation at 50 μM. Put shortly: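 Compound (0.79–100 μM) was preincubated 30 min at 37° C with 150 nM TRAP1 in 25 mM Pipes pH 7.5, 40 mM KCl, 0.05 mM MgCl2. Reaction started with 20 μM ATP, 60 min at 37° C. ADP measured by luminescence against a standard curve; activation fitted sigmoidally for EC50 and Emax.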
For orientation: ADP-Glo first removes unused ATP, then detects ADP through luciferase.

A value given as a limit tells only on which side of the number the result lay.

What is called EC50 is the concentration needed to bring the measured effect to its halfway point. The Emax is the maximal effect, on the per cent scale that the assay sets. With `COc1ncc(NC(=O)c2coc(-c3ccccc3)n2)cc1S(=O)(=O)Nc1ncc(Cl)cc1C` [compound 1966, N-(5-(N-(5-chloro-3-methylpyridin-2-yl)sulfamoyl)-6-methoxypyridin-3-yl)-2-phenyloxazole-4-carboxamide], the EC50 was 20 to 100 µM and the Emax is 160 to 199%.

Consider `COc1ncc(NC(=O)c2csc(-c3ccccc3)n2)cc1S(=O)(=O)N(CC(O)CO)c1ccc(Cl)cc1` (stereo not drawn) [compound 2431], for which the EC50 was under 10 µM and the maximal effect (Emax) was 160 to 199%.

With `COc1ncc(NC(=O)c2ccccc2N2CCOCC2)cc1S(=O)(=O)Nc1c(C)cccc1C` [compound 2602], the activation at 50 µM was in the range of 151 to 180%.

Consider `COc1ncc(NC(=O)c2oncc2C)cc1S(=O)(=O)Nc1c(C)cccc1C` [compound 2708], for which the activation at 50 µM lay in the range of 120 to 150%.

On to `COc1ncc(NC(=O)c2ccc3nccnc3c2)cc1S(=O)(=O)Nc1ccc(Cl)cc1` [compound 1198, N-(5-(N-(4-chlorophenyl)sulfamoyl)-6-methoxypyridin-3-yl) quinoxaline-6-carboxamide], for which the concentration for a half-maximal effect (EC50) lay in the range of 10 to 20 µM and the Emax lay in the range of 160 to 199%.

With `CCc1cc(C(=O)Nc2cnc(OC)c(S(=O)(=O)Nc3c(C)cccc3C)c2)n(C)n1` [compound 2600], the activation at 50 µM was in the range of 151 to 180%.

Regarding `COc1ncc(NC(=O)c2ncc(-c3ccccc3)o2)cc1S(=O)(=O)Nc1ccc(F)c(F)c1C` [compound 2366], the EC50 is under 10 µM and the Emax was in the range of 160 to 199%.

As to `COc1ncc(NC(=O)c2cnn(C)c2Cl)cc1S(=O)(=O)Nc1c(C)cccc1C` [compound 2638], the activation at 50 µM was 151 to 180%.

In the case of `COc1ncc(NC(=O)c2cccc3c2CCC(=O)N3)cc1S(=O)(=O)Nc1c(C)cccc1C` [compound 2525], the activation at 50 µM was 151 to 180%.

For `COc1ncc(NC(=O)c2coc(-c3ccccc3)n2)cc1S(=O)(=O)Nc1cccc(C#N)n1` [compound 2157], the EC50 was in the range of 20 to 100 µM and the Emax fell in the range of 160 to 199%.

For `COc1ncc(NC(=O)c2cnn(C3CCCCC3)c2)cc1S(=O)(=O)Nc1c(C)cccc1C` [compound 2700], the activation at 50 µM fell in the range of 181 to 352%.

For the compound `COc1ncc(NC(=O)c2ncoc2C(C)C)cc1S(=O)(=O)Nc1ccc(Cl)cc1` [compound 2487], the concentration giving a half-maximal response (EC50) was 10 to 20 µM and the Emax was in the range of 160 to 199%.

As to `COc1ncc(NC(=O)c2cc3c(C)nn(C)c3s2)cc1S(=O)(=O)Nc1c(C)cccc1C` [compound 1380, N-(5-(N-(2,6-dimethylphenyl)sulfamoyl)-6-methoxypyridin-3-yl)-1,3-dimethyl-1H-thieno[2,3-c]pyrazole-5-carboxamide], the EC50 was under 10 µM and the Emax is over 300%.

In the case of `COc1ncc(NC(=O)c2scc(C)c2Cl)cc1S(=O)(=O)Nc1c(C)cccc1C` [compound 1398], the EC50 was in the range of 10 to 20 µM and the maximum response (Emax) fell in the range of 160 to 199%.

For the compound `COc1ncc(NC(=O)c2ccc(-n3nc(C)nc3C)cc2)cc1S(=O)(=O)Nc1c(C)cccc1C` [compound 2656], the activation at 50 µM lay in the range of 181 to 352%.

Consider `COc1ncc(NC(=O)c2cccc(CN3CCCCC3)c2)cc1S(=O)(=O)Nc1c(C)cccc1C` [compound 2599], for which the activation at 50 µM was in the range of 181 to 352%.

With `COc1ncc(NC(=O)c2nnsc2C2CC2)cc1S(=O)(=O)Nc1c(C)cccc1C` [compound 2758], the activation at 50 µM was 151 to 180%.

Regarding `COc1ncc(NC(=O)c2ncco2)cc1S(=O)(=O)Nc1c(C)cccc1C` [compound 2712], the activation at 50 µM is 120 to 150%.

For `COc1ncc(NC(=O)c2scnc2C)cc1S(=O)(=O)Nc1c(C)cccc1C` [compound 2654], the activation at 50 µM is 120 to 150%.

Turning to `COc1ncc(NC(=O)c2csc(-c3ccccc3)n2)cc1S(=O)(=O)Nc1ccc(C#N)nc1` [compound 1785], the concentration for a half-maximal effect (EC50) lay within 20 to 100 µM and the Emax was in the range of 200 to 300%.

With `COc1ncc(NC(=O)c2snnc2C2CC2)cc1S(=O)(=O)Nc1c(C)cccc1C` [compound 2720], the activation at 50 µM is 181 to 352%.

`[2H]c1c([2H])c([2H])c(C([2H])([2H])[2H])c(NS(=O)(=O)c2cc(NC(=O)c3csc(-c4ccccc4)n3)cnc2OC)c1[2H]` [compound 2492]: the EC50 was under 10 µM and the Emax lay in the range of 119 to 159%.

Turning to `COc1ncc(NC(=O)c2ccc(F)cc2)cc1S(=O)(=O)Nc1c(C)cccc1C` [compound 2542], the activation at 50 µM was in the range of 151 to 180%.

Regarding `COc1ncc(NC(=O)c2csc(-c3ccccc3)n2)cc1S(=O)(=O)Nc1nc(C(C)(C)C)ns1` [compound 1839], the EC50 lay in the range of 10 to 20 µM and the Emax was 200 to 300%.

As for `COc1ncc(NC(=O)c2ccc(CNC(C)=O)cc2)cc1S(=O)(=O)Nc1c(C)cccc1C` [compound 2682], the activation at 50 µM lay within 151 to 180%.

On to `COc1ncc(NC(=O)c2cc(C)no2)cc1S(=O)(=O)Nc1c(C)cccc1C` [compound 2754], for which the activation at 50 µM was 120 to 150%.

Turning to `COc1ncc(NC(=O)c2ncc(-c3ccccc3)o2)cc1S(=O)(=O)Nc1cccc2cnc(C)cc12` [compound 1624], the EC50 lay in the range of 10 to 20 µM and the Emax lay in the range of 160 to 199%.

On to `COc1ncc(NC(=O)c2ccc(C(F)(F)F)s2)cc1S(=O)(=O)Nc1c(C)cccc1C` [compound 2644], for which the activation at 50 µM was 151 to 180%.

Turning to `COc1ncc(NC(=O)c2cccc(CO)c2)cc1S(=O)(=O)Nc1c(C)cccc1C` [compound 2767], the activation at 50 µM lay within 181 to 352%.

Regarding `COc1ncc(NC(=O)c2ccnc(-c3cccnc3)c2)cc1S(=O)(=O)Nc1c(C)cccc1C` [compound 1940, N-(5-(N-(2,6-dimethylphenyl)sulfamoyl)-6-methoxypyridin-3-yl)-[2,3′-bipyridine]-4-carboxamide], the EC50 lay within 10 to 20 µM and the Emax was over 300%.

Turning to `COc1ncc(NC(=O)c2cccc3c2CC(=O)N3)cc1S(=O)(=O)Nc1c(C)cccc1C` [compound 2635], the activation at 50 µM is 181 to 352%.

Turning to `COc1ncc(NC(=O)c2csc(-c3ccccc3)n2)cc1S(=O)(=O)Nc1cccc(C#N)c1C` [compound 1406, N-(5-(N-(3-cyano-2-methylphenyl)sulfamoyl)-6-methoxypyridin-3-yl)-2-phenylthiazole-4-carboxamide], the EC50 was under 10 µM and the Emax was 119 to 159%.

For the compound `COc1ncc(NC(=O)c2csc(-c3ccccc3)n2)cc1S(=O)(=O)Nc1cc(C(F)(F)F)ncc1C` [compound 2365], the EC50 fell in the range of 20 to 100 µM and the Emax lay within 200 to 300%.

On to `COc1ncc(NC(=O)c2csc(-c3ccccc3)n2)cc1S(=O)(=O)Nc1cc(C)n(C(C)C)n1` [compound 1754], for which the concentration for a half-maximal effect (EC50) was in the range of 10 to 20 µM and the Emax fell in the range of 160 to 199%.

On to `COc1ncc(NC(=O)c2cc(C)n(C)n2)cc1S(=O)(=O)Nc1c(C)cccc1C` [compound 2564], for which the activation at 50 µM was in the range of 120 to 150%.

Take `CCN1CCN(Cc2ccccc2C(=O)Nc2cnc(OC)c(S(=O)(=O)Nc3c(C)cccc3C)c2)CC1` [compound 2547]: the activation at 50 µM lay within 120 to 150%.

For the compound `COc1ncc(NC(=O)c2csc(-c3ccc(F)cc3)n2)cc1S(=O)(=O)Nc1c(C)cccc1C` [compound 1413, N-(5-(N-(2,6-dimethylphenyl)sulfamoyl)-6-methoxypyridin-3-yl)-2-(4-fluorophenyl)thiazole-4-carboxamide], the EC50 is under 10 µM and the Emax was in the range of 119 to 159%.

For the origin of these results see US20230159509A1 (Amathus Therapeutics, Inc., priority 2020, published 2023).
